According to patent publication US7253166B2, “6-phenyl-7H-pyrrolo[2,3-d]pyrimidine compounds that induce neuronal differentiation in embryonic stem cells” (IRM LLC, priority 2003, dated 2007):

Columns and labels:
KDR = KDR (Homo sapiens, UniProt P35968); assay: Kinase inhibition KDR; format: biochemical
Flt-4 = Flt-4 (Homo sapiens, UniProt P35916); assay: Kinase inhibition Flt-4; format: biochemical
c-Kit = c-Kit (Homo sapiens, UniProt P10721); assay: Kinase inhibition c-Kit; format: biochemical
c-Kit, sequence (P10721 26-976): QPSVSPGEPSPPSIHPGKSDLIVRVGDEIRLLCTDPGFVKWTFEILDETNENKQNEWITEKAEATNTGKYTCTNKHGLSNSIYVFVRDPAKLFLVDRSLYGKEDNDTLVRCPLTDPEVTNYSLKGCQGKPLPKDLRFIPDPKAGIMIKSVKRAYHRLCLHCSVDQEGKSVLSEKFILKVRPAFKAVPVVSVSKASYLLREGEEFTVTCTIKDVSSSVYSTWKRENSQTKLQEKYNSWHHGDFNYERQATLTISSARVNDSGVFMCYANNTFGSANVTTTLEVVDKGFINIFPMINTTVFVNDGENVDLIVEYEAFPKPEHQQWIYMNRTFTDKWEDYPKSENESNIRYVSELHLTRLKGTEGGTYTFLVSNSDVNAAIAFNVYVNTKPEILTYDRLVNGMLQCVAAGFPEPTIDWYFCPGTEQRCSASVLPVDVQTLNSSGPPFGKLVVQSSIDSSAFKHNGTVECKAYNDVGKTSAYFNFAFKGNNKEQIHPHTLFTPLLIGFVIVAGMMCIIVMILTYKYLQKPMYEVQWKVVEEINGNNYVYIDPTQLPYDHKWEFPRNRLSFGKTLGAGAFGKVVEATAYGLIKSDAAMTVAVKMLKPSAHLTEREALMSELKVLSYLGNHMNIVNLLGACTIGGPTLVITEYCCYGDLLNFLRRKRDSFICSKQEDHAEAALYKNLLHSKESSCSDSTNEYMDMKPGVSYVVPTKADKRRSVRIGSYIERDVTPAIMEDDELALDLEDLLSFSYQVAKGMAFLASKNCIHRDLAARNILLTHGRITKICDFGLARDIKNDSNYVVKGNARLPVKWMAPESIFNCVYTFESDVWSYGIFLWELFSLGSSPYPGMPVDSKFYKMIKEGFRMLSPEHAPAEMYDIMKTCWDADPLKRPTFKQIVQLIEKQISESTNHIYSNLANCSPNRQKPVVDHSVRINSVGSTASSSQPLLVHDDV

HER-2 = HER-2 (Homo sapiens, UniProt P04626); assay: Kinase inhibition HER-2; format: biochemical
HER-2, sequence (P04626 23-1255, species assumed): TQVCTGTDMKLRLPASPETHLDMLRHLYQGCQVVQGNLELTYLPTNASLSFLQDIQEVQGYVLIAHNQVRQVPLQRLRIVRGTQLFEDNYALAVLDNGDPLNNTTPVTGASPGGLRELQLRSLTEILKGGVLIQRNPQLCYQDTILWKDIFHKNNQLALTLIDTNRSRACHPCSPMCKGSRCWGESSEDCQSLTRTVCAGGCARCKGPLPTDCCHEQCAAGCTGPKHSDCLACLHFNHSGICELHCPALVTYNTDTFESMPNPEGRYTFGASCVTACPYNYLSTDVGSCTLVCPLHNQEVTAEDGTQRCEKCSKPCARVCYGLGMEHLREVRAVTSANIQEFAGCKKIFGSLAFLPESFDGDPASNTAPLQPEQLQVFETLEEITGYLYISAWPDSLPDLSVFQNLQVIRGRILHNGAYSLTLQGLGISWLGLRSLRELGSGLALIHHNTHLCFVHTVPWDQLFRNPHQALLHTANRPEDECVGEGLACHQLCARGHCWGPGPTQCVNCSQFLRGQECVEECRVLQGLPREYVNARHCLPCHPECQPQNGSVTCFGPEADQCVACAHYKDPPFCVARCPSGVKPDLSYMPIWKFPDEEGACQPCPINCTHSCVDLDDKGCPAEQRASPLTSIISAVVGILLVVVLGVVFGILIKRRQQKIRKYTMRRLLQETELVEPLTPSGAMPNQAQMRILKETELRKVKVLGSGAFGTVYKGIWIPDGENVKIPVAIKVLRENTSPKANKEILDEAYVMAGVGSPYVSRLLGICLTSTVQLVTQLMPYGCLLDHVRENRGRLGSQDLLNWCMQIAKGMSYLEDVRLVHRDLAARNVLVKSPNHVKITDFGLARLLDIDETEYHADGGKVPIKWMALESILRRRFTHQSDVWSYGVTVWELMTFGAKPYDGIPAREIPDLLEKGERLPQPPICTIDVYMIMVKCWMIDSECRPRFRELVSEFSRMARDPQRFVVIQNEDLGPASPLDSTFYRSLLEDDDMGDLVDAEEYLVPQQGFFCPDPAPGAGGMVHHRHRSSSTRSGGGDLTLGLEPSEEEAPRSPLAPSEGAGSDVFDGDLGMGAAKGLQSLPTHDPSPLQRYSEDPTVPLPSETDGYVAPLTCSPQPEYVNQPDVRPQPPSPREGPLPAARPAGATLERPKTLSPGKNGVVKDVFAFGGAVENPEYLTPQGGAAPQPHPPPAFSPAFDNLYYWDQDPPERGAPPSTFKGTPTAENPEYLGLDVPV

Tek = Tek (Homo sapiens, UniProt Q02763); assay: Kinase inhibition Tek; format: biochemical
Tek, sequence (Q02763 23-1124, species assumed): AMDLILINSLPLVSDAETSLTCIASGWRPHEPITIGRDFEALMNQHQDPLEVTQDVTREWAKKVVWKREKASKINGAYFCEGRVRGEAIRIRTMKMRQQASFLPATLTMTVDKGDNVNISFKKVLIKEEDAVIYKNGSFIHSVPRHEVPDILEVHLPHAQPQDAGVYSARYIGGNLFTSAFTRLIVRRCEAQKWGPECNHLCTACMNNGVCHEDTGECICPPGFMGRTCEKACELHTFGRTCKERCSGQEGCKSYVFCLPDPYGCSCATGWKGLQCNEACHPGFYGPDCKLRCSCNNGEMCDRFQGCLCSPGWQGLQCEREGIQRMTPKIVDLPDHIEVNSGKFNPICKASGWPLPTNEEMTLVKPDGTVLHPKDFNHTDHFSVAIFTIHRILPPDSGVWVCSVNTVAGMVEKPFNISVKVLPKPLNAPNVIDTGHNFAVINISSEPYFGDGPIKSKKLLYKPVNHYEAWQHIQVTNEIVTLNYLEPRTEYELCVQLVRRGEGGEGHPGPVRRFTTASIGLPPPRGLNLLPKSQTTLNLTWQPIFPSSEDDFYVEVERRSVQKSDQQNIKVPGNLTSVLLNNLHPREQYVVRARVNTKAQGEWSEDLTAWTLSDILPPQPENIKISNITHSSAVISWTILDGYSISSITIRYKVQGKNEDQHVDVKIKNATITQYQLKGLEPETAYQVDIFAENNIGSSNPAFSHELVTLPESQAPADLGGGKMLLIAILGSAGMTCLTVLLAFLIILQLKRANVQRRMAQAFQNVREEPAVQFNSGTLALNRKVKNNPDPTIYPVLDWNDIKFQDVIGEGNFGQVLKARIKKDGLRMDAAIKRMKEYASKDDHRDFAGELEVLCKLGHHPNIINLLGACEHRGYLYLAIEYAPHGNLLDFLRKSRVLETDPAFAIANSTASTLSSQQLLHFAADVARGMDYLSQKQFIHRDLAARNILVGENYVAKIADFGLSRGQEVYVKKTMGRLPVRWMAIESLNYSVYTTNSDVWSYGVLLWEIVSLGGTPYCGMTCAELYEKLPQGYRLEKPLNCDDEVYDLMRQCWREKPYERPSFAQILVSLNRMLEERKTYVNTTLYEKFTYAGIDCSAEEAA

HER-1 = HER-1 (Homo sapiens, UniProt P00533); assay: Kinase inhibition HER-1; format: biochemical
PDGFR-β = PDGFR-β (Homo sapiens, UniProt P09619); assay: Kinase inhibition PDGFR-β; format: biochemical
[1] = test system: GSK-3β/β-catenin signaling; assay: GSK-3β/β-catenin-dependent signaling, TCF/LEF (pTOPFLASH) luciferase reporter in P19 cells; format: cell-based; conditions: 10 μM, 36 hours
Description: P19 cells are co-transfected with pTOPFLASH (containing four consensus LEF-1/TCF-1 binding sites, a minimal promoter and a firefly luciferase reporter) and renilla luciferase control reporter (Promega). […] Thirty-six hours later, cells are lysed and protein extracts are assayed for luciferase activity. The fold induction offirefly luciferase activity is normalized to renilla luciferase activity. The normalized activities are averaged over three experiments.

Flt-1 = Flt-1 (Homo sapiens, UniProt P17948); assay: Kinase inhibition Flt-1; format: biochemical
c-src = c-src (Homo sapiens, UniProt P12931); assay: Kinase inhibition c-src; format: biochemical
c-src, sequence (P12931 whole entry, species assumed): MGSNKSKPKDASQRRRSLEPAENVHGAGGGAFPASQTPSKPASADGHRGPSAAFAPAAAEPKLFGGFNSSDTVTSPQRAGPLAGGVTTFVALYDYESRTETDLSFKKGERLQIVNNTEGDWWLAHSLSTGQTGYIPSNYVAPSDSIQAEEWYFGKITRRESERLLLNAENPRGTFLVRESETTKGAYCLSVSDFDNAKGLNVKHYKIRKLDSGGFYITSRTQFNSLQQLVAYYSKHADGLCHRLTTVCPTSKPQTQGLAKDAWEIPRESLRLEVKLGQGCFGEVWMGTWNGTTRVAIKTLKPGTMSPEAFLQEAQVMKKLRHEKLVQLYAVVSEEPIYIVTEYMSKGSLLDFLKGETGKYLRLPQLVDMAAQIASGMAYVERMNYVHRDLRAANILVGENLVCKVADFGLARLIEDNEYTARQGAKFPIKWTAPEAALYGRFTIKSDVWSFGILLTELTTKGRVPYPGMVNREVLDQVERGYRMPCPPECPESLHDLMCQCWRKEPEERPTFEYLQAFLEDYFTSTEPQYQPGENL

P19 cells = assay: Neuronal differentiation in P19 cell monolayers (morphology, immunostaining with neuronal markers); format: cell-based; conditions: 1 μM
c-Abl = c-Abl (Homo sapiens, UniProt P00519); assay: Kinase inhibition c-Abl; format: biochemical
c-Abl, sequence (P00519 whole entry): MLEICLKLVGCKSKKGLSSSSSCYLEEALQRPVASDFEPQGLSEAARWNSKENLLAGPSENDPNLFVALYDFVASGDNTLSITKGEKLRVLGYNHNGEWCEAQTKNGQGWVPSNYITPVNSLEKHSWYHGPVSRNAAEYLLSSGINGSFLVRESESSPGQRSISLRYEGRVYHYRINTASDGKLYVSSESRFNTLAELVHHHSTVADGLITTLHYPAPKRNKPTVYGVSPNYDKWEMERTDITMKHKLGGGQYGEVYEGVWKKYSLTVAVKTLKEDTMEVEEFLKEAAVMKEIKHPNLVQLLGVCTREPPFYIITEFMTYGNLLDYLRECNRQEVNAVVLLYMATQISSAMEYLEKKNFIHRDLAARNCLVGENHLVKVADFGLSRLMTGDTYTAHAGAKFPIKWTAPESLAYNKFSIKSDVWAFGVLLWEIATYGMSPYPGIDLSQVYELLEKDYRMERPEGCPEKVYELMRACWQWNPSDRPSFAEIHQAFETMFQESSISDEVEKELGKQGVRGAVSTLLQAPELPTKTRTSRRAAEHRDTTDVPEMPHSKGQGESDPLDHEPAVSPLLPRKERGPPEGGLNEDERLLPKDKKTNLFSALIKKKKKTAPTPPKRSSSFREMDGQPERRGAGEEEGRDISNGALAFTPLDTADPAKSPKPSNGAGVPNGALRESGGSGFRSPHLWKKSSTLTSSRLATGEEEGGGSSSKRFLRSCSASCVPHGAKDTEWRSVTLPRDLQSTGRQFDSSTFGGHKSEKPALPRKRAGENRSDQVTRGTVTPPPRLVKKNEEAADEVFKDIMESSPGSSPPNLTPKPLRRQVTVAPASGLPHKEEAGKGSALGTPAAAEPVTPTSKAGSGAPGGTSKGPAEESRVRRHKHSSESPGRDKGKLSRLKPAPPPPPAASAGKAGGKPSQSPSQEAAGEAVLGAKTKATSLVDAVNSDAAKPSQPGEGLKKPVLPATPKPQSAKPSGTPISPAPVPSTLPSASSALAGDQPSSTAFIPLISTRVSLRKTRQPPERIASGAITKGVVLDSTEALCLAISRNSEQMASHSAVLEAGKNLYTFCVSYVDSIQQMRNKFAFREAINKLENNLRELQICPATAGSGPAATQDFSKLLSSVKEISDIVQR

inhibition at 10 µM (KDR): 100%
inhibition at 10 µM (Flt-4): 100%
inhibition at 10 µM (c-Kit; 10 μM): 100%
IC50 (c-Kit; read-out: IC50 against c-Kit): 20 nM
inhibition at 10 µM (HER-2; 10 μM): 100%
IC50 (HER-2; read-out: IC50 against HER-2): 30 nM
inhibition at 10 µM (Tek): 100%
inhibition at 10 µM (HER-1): 100%
inhibition at 10 µM (PDGFR-β): 100%
inhibition at 10 µM (Flt-1): 100%
inhibition at 10 µM (c-src): 100%
inhibition at 10 µM (c-Abl; 10 μM): 100%
IC50 (c-Abl; read-out: IC50 against c-Abl): 4.5 nM
SMILES: Nc1cccc(-c2cc3c(Oc4cccc(O)c4)ncnc3[nH]2)c1 [Example 1, 3-[6-(3-Amino-phenyl)-7H-pyrrolo[2,3-d]pyrimidin-4-yloxy]-phenol]
increase in β-catenin induced TCF/LEF reporter activity [1]: eleven
differentiation of P19 cells into glial and muscle cells (P19 cells): not detected
nestin immunostaining of the remaining cells (neuronal progenitor cells) (P19 cells): immunostained positively for nestin
cells differentiating specifically into neuronal lineages (P19 cells; monolayers of P19 cells, neuronal morphology and immunostaining with neuronal specific markers): 30-40%
